Measurements: PubChem BioAssay (NCI)
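These data come from cells grown in 96-well plates and exposed to compound for 48 hours at five concentrations. Here, GI50 denotes the concentration required for 50% inhibition of growth. Definition used: TGI = concentration required for complete inhibition of growth.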

Legend:
Assay in all cases: DTP human tumour cell line panel, 48 h
LOX IMVI melanoma = system: LOX IMVI melanoma
NCI-H226 lung = system: NCI-H226 lung
PC-3 prostate = system: PC-3 prostate
NCI/ADR-RES ovarian = system: NCI/ADR-RES ovarian
IGROV1 ovarian = system: IGROV1 ovarian
A498 renal = system: A498 renal
MDA-MB-435 = system: MDA-MB-435
COLO 205 colon = system: COLO 205 colon
UO-31 renal = system: UO-31 renal
HOP-92 NSCLC = system: HOP-92 NSCLC
EKVX NSCLC = system: EKVX NSCLC
SN12C renal = system: SN12C renal
OVCAR-4 ovarian = system: OVCAR-4 ovarian
BT-549 breast = system: BT-549 breast
SK-MEL-5 melanoma = system: SK-MEL-5 melanoma
ACHN renal = system: ACHN renal
SK-MEL-2 melanoma = system: SK-MEL-2 melanoma
MALME-3M melanoma = system: MALME-3M melanoma
OVCAR-3 ovarian = system: OVCAR-3 ovarian
HS 578T breast = system: HS 578T breast
CCRF-CEM leukemia = system: CCRF-CEM leukemia
SNB-19 CNS = system: SNB-19 CNS
TK-10 renal = system: TK-10 renal
OVCAR-5 ovarian = system: OVCAR-5 ovarian
A549 NSCLC = system: A549 NSCLC
RXF 393 renal = system: RXF 393 renal
NCI-H522 lung = system: NCI-H522 lung
HT29 colon = system: HT29 colon
SF-268 CNS = system: SF-268 CNS
NCI-H23 lung = system: NCI-H23 lung
SNB-75 CNS = system: SNB-75 CNS
RPMI-8226 leukemia = system: RPMI-8226 leukemia
DU-145 prostate = system: DU-145 prostate
HCT-15 colon = system: HCT-15 colon
UACC-257 melanoma = system: UACC-257 melanoma
HOP-62 NSCLC = system: HOP-62 NSCLC
K-562 leukemia = system: K-562 leukemia
OVCAR-8 ovarian = system: OVCAR-8 ovarian
SF-539 CNS = system: SF-539 CNS
MDA-MB-231 breast = system: MDA-MB-231 breast
HCC-2998 colon = system: HCC-2998 colon
SR leukemia = system: SR leukemia
786-0 renal = system: 786-0 renal
M14 melanoma = system: M14 melanoma
SW-620 colon = system: SW-620 colon
HCT-116 colon = system: HCT-116 colon
U251 CNS = system: U251 CNS
SF-295 CNS = system: SF-295 CNS
HL-60(TB) leukemia = system: HL-60(TB) leukemia
CAKI-1 renal = system: CAKI-1 renal
MOLT-4 leukemia = system: MOLT-4 leukemia
MCF7 breast = system: MCF7 breast
T-47D breast = system: T-47D breast
SK-MEL-28 melanoma = system: SK-MEL-28 melanoma
UACC-62 melanoma = system: UACC-62 melanoma
NCI-H460 lung = system: NCI-H460 lung
SK-OV-3 ovarian = system: SK-OV-3 ovarian
KM12 colon = system: KM12 colon

Compound: Oc1ccc(CCCCCCc2ccc(O)cc2)cc1
- GI50 (LOX IMVI melanoma): 1.5 µM
- TGI (LOX IMVI melanoma): 17.9 µM
- GI50 (NCI-H226 lung): 15.7 µM
- TGI (NCI-H226 lung): 32.9 µM
- GI50 (PC-3 prostate): 9.87 µM
- TGI (PC-3 prostate): 27.5 µM
- GI50 (NCI/ADR-RES ovarian): 3.99 µM
- TGI (NCI/ADR-RES ovarian): 17.4 µM
- GI50 (IGROV1 ovarian): 8.83 µM
- TGI (IGROV1 ovarian): 28.4 µM
- GI50 (A498 renal): 11.4 µM
- TGI (A498 renal): 23.5 µM
- GI50 (MDA-MB-435): 11.8 µM
- TGI (MDA-MB-435): 26.9 µM
- GI50 (COLO 205 colon): 15.2 µM
- TGI (COLO 205 colon): 29.4 µM
- GI50 (UO-31 renal): 2.36 µM
- TGI (UO-31 renal): 15 µM
- GI50 (HOP-92 NSCLC): 6.99 µM
- TGI (HOP-92 NSCLC): 20.5 µM
- GI50 (EKVX NSCLC): 10.3 µM
- TGI (EKVX NSCLC): 26.7 µM
- GI50 (SN12C renal): 9.22 µM
- TGI (SN12C renal): 24.3 µM
- GI50 (OVCAR-4 ovarian): 14.4 µM
- TGI (OVCAR-4 ovarian): > 46.9 µM
- GI50 (BT-549 breast): 2.94 µM
- TGI (BT-549 breast): 18.7 µM
- GI50 (SK-MEL-5 melanoma): 5.27 µM
- TGI (SK-MEL-5 melanoma): 17.1 µM
- GI50 (ACHN renal): 1.55 µM
- TGI (ACHN renal): 12 µM
- GI50 (SK-MEL-2 melanoma): 16 µM
- TGI (SK-MEL-2 melanoma): 35.5 µM
- GI50 (MALME-3M melanoma): 13.3 µM
- TGI (MALME-3M melanoma): 29.6 µM
- GI50 (OVCAR-3 ovarian): 6.02 µM
- TGI (OVCAR-3 ovarian): 17.8 µM
- GI50 (HS 578T breast): 13.3 µM
- TGI (HS 578T breast): 37.4 µM
- GI50 (CCRF-CEM leukemia): 0.0471 µM
- TGI (CCRF-CEM leukemia): 32.8 µM
- GI50 (SNB-19 CNS): 12.6 µM
- TGI (SNB-19 CNS): 25.5 µM
- GI50 (TK-10 renal): 19.7 µM
- TGI (TK-10 renal): > 57.3 µM
- GI50 (OVCAR-5 ovarian): 16.9 µM
- TGI (OVCAR-5 ovarian): 31.4 µM
- GI50 (A549 NSCLC): 6.62 µM
- TGI (A549 NSCLC): 23 µM
- GI50 (RXF 393 renal): 8.03 µM
- TGI (RXF 393 renal): 21.5 µM
- GI50 (NCI-H522 lung): 5.98 µM
- TGI (NCI-H522 lung): 24.2 µM
- GI50 (HT29 colon): 17 µM
- TGI (HT29 colon): 34.5 µM
- GI50 (SF-268 CNS): 3.89 µM
- TGI (SF-268 CNS): 17.5 µM
- GI50 (NCI-H23 lung): 7.5 µM
- TGI (NCI-H23 lung): 21.5 µM
- GI50 (SNB-75 CNS): 11.6 µM
- TGI (SNB-75 CNS): 35.3 µM
- GI50 (RPMI-8226 leukemia): 12.1 µM
- TGI (RPMI-8226 leukemia): > 69 µM
- GI50 (DU-145 prostate): 4.8 µM
- TGI (DU-145 prostate): 15.2 µM
- GI50 (HCT-15 colon): 12.3 µM
- TGI (HCT-15 colon): 26.6 µM
- GI50 (UACC-257 melanoma): 13.9 µM
- TGI (UACC-257 melanoma): 28.4 µM
- GI50 (HOP-62 NSCLC): 10.3 µM
- TGI (HOP-62 NSCLC): 23.4 µM
- GI50 (K-562 leukemia): 6.81 µM
- TGI (K-562 leukemia): > 75.1 µM
- GI50 (OVCAR-8 ovarian): 5.18 µM
- TGI (OVCAR-8 ovarian): 20.2 µM
- GI50 (SF-539 CNS): 2.46 µM
- TGI (SF-539 CNS): 13.7 µM
- GI50 (MDA-MB-231 breast): 9.66 µM
- TGI (MDA-MB-231 breast): 25.9 µM
- GI50 (HCC-2998 colon): 11 µM
- TGI (HCC-2998 colon): 23.2 µM
- GI50 (SR leukemia): 6.15 µM
- TGI (SR leukemia): > 100 µM
- GI50 (786-0 renal): 3.65 µM
- TGI (786-0 renal): 15.1 µM
- GI50 (M14 melanoma): 4.7 µM
- TGI (M14 melanoma): 17.5 µM
- GI50 (SW-620 colon): 7.29 µM
- TGI (SW-620 colon): 20.5 µM
- GI50 (HCT-116 colon): 9.68 µM
- TGI (HCT-116 colon): 22.5 µM
- GI50 (U251 CNS): 5.61 µM
- TGI (U251 CNS): 19.8 µM
- GI50 (SF-295 CNS): 3.18 µM
- TGI (SF-295 CNS): 15.5 µM
- GI50 (HL-60(TB) leukemia): 0.839 µM
- TGI (HL-60(TB) leukemia): 18.7 µM
- GI50 (CAKI-1 renal): 1.75 µM
- TGI (CAKI-1 renal): 7.58 µM
- GI50 (MOLT-4 leukemia): 0.566 µM
- TGI (MOLT-4 leukemia): 27.9 µM
- GI50 (MCF7 breast): 6.91 µM
- TGI (MCF7 breast): 22.3 µM
- GI50 (T-47D breast): 8.03 µM
- TGI (T-47D breast): 27.2 µM
- GI50 (SK-MEL-28 melanoma): 17 µM
- TGI (SK-MEL-28 melanoma): 31.5 µM
- GI50 (UACC-62 melanoma): 4.24 µM
- TGI (UACC-62 melanoma): 15.3 µM
- GI50 (NCI-H460 lung): 5.88 µM
- TGI (NCI-H460 lung): 18.9 µM
- GI50 (SK-OV-3 ovarian): 11.8 µM
- TGI (SK-OV-3 ovarian): 34.1 µM
- GI50 (KM12 colon): 6.54 µM
- TGI (KM12 colon): 19.8 µM
